The source of these data is patent USRE50528E1, “Compounds and compositions for modulating EGFR mutant kinase activities” (Yuhan Corporation, priority 2014, dated 2025).

For one experiment, the target named is T1, EGFR mutant L858R/T790M (Homo sapiens, UniProt P00533, L858R/T790M).
T1 construct: truncated human JAK3, EGFR mutants such as del E746-A750; purchased Carna Biosciences
Briefly: Kinase inhibition assay, EGFR L858R/T790M.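 Also: truncated human enzyme preincubated two hours with compound, then one hour with one millimolar ATP and ULight-PolyGT peptide, Europium-labeled antibody detection, IC50.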 The note with it: read-out: EGFR mutants L858R/T790M. Format: biochemical.

For another experiment, the target named is T2, EGFR mutant Del19/T790M (Homo sapiens, UniProt P00533, DEL746-750/T790M).
T2 construct: truncated human JAK3, EGFR mutants such as del E746-A750; purchased Carna Biosciences
T2 sequence (P00533 with tags, fused parts or gaps DEL746-750/T790M limits assumed): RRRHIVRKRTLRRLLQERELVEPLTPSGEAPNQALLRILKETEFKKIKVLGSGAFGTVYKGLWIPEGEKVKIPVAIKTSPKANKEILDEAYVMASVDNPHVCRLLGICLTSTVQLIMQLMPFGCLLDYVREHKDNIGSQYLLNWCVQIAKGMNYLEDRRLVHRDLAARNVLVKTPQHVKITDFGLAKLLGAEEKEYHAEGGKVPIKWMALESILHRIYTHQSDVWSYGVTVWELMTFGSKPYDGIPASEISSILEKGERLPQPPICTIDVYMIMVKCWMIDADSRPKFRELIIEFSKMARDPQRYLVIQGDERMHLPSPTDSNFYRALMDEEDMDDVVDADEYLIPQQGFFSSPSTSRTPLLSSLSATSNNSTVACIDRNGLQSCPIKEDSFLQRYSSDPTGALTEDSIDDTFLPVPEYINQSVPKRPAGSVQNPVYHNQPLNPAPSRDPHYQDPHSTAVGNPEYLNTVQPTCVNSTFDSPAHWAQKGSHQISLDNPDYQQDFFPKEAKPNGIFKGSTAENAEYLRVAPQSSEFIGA
Briefly: Kinase inhibition assay, EGFR del E746-A750/T790M. Format: biochemical. The note with it: read-out: EGFR mutants Del19/T790M.

The next experiment deals with T3, EGFR mutant T790M (Homo sapiens, UniProt P00533, T790M).
T3 construct: truncated human JAK3, EGFR mutants such as del E746-A750; purchased Carna Biosciences
T3 sequence (P00533 669-1210 T790M limits assumed): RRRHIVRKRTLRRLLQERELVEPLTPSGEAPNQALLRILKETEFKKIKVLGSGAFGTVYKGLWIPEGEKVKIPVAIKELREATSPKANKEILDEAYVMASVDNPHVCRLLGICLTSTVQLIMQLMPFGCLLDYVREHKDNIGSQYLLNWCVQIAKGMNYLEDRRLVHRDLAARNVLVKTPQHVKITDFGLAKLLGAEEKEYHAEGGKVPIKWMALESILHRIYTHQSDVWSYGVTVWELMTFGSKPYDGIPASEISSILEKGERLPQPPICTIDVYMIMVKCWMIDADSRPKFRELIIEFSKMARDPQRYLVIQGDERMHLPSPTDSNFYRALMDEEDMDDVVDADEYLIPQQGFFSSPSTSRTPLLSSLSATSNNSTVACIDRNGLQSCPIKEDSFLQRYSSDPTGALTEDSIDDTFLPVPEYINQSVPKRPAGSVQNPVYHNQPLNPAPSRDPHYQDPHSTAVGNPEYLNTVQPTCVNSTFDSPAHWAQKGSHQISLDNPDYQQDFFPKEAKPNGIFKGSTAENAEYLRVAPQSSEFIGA
In words: Kinase inhibition assay, EGFR mutant T790M.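 Also: truncated human EGFR mutant enzyme preincubated two hours with compound, then ATP plus ULight-PolyGT peptide for one hour, Europium-labeled antibody LANCE detection, IC50.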 The note with it: biochemical potency.

The target of another experiment is T4, EGFR mutant L858R (Homo sapiens, UniProt P00533, L858R).
T4 construct: truncated human JAK3, EGFR mutants such as del E746-A750; purchased Carna Biosciences
T4 sequence (P00533 669-1210 L858R limits assumed): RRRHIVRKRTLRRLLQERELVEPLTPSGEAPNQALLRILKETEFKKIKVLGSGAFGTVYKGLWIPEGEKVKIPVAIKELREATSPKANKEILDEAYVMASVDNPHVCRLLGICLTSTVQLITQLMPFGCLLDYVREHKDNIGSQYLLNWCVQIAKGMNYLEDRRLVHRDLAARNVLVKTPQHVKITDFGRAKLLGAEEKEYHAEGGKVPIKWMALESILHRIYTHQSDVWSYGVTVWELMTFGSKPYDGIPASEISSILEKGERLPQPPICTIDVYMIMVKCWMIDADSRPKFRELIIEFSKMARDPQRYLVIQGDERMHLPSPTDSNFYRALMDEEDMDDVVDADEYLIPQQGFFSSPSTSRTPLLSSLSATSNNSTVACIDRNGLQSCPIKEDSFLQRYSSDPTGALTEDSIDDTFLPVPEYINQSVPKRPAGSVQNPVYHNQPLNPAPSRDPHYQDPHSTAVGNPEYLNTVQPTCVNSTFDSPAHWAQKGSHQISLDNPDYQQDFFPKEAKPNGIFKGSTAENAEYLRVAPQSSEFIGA
In words: Kinase inhibition assay, EGFR L858R.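 Also: truncated human EGFR L858R kinase with compound preincubation, ULight-PolyGT peptide phosphorylation read by Europium-antibody Lance detection, IC50.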 Format: biochemical. As to conditions: read-out: EGFR mutants L858R.

For the next experiment, the target named is T5, SYK (Homo sapiens, UniProt P43405).
T5 construct: Purified human, full-length SYK, KDR; purchased Carna Biosciences
In words: Kinase inhibition assay, SYK.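 Also: purified full-length human SYK pre-incubated 30 min with compound, then ULight-TK peptide phosphorylation for 1 h, detected with Europium-labeled antibody in Lance buffer.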 As to conditions: biochemical potency. The experiment is classed as biochemical.

Experiment [1] deals with T6, EGFR mutant Del19 (E746-A750) (Homo sapiens, UniProt P00533, DEL746-750).
T6 construct: truncated human JAK3, EGFR mutants such as del E746-A750; purchased Carna Biosciences
T6 sequence (P00533 with tags, fused parts or gaps DEL746-750 limits assumed): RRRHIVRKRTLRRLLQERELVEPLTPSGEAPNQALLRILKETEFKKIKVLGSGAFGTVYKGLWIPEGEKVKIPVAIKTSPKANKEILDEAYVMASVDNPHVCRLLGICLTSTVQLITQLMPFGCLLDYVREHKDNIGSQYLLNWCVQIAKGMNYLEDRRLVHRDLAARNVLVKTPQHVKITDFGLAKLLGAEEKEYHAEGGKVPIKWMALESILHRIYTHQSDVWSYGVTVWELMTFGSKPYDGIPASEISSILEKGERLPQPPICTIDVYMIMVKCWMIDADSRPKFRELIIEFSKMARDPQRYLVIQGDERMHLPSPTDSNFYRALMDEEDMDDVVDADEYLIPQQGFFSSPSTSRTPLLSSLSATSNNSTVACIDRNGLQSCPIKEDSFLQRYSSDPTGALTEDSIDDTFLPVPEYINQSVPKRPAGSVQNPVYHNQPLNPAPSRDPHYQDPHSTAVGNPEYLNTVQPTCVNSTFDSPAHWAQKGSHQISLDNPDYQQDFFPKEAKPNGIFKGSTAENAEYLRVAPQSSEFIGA
Briefly: Kinase inhibition assay, EGFR del E746-A750.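 Also: truncated human EGFR mutant kinase, two-hour preincubation with compound, then one-hour reaction with ATP and ULight-PolyGT peptide, LANCE Europium-antibody phosphorylation readout, IC50.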 Format: biochemical. As to conditions: read-out: EGFR mutants Del19 (E746-A750).

T1 sequence (P00533 669-1210 T790M/L858R limits assumed): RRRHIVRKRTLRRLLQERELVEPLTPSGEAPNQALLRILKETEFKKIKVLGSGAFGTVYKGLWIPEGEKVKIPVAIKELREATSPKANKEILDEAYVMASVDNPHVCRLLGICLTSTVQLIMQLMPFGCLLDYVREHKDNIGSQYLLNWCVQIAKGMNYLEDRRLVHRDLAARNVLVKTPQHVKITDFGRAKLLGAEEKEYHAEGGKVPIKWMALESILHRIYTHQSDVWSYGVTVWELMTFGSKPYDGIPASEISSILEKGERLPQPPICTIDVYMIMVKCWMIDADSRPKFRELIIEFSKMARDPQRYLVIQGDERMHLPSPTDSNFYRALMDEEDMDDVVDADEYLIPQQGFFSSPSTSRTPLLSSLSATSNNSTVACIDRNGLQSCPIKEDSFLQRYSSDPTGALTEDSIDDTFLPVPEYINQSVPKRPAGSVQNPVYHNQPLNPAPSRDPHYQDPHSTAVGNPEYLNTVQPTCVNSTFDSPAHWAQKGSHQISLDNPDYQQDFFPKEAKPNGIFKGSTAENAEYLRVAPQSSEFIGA

In the case of `C=CC(=O)Nc1cc(Nc2ncc(C)c(-n3cc(CN(C)C)cn3)n2)c(OC)cc1N1CCOCC1` [Compound 22, N-(5-(4-(4-((dimethylamino)methyl)-1H-pyrazol-1-yl)-5-methylpyrimidin-2-ylamino)-4-methoxy-2-morpholinophenyl)acrylamide], the IC50 was under 20 nM at EGFR mutant L858R/T790M; under 20 nM at EGFR mutant Del19/T790M; under 20 nM against EGFR mutant T790M; 20 to 200 nM at EGFR mutant L858R; 20 to 200 nM on SYK; under 20 nM in experiment [1].
In the case of `C=CC(=O)Nc1cc(Nc2ncc(C)c(-n3cc(CN4CCC4)cn3)n2)c(OC)cc1N1CCN(C(C)=O)CC1` [Compound 37, N-(2-(4-acetylpiperazin-1-yl)-5-(4-(4-(azetidin-1-ylmethyl)-1H-pyrazol-1-yl)-5-methylpyrimidin-2-ylamino)-4-methoxyphenyl)acrylamide], the IC50 is under 20 nM on EGFR mutant L858R/T790M; under 20 nM at EGFR mutant Del19/T790M; under 20 nM against EGFR mutant T790M; under 20 nM at EGFR mutant L858R; 201 to 1000 nM at SYK; under 20 nM in experiment [1].
Consider `C=CC(=O)Nc1cc(Nc2ncc(C)c(-n3cc(CN4CCC4)cn3)n2)c(OC)cc1C1=CCN(C)CC1` [Compound 64, N-(5-(4-(4-(azetidin-1-ylmethyl)-1H-pyrazol-1-yl)-5-methylpyrimidin-2-ylamino)-4-methoxy-2-(1-methyl-1,2,3,6-tetrahydropyridin-4-yl)phenyl)acrylamide], for which the IC50 on EGFR mutant L858R/T790M was under 20 nM; at EGFR mutant Del19/T790M it was under 20 nM; on EGFR mutant T790M, under 20 nM; at EGFR mutant L858R, 20 to 200 nM; against SYK, over 1000 nM; in experiment [1], under 20 nM.
Take `C=CC(=O)Nc1cc(Nc2nccc(-n3cc(CN(C)C)c(-c4ccccc4)n3)n2)c(OC)cc1N(C)CCOC` [Compound 94]: the IC50 on EGFR mutant L858R/T790M is under 20 nM; on EGFR mutant Del19/T790M, under 20 nM; against EGFR mutant T790M, under 20 nM; at EGFR mutant L858R, under 20 nM; on SYK, over 1000 nM; in experiment [1], under 20 nM.
In the case of `C=CC(=O)Nc1cc(Nc2ncc(C)c(-n3cc(CN4C[C@H](O)[C@H](OC)C4)cn3)n2)c(OC)cc1N1CCOCC1` [Compound 21, N-(5-(4-(4-(((3S,4R)-3-hydroxy-4-methoxypyrrolidin-1-yl)methyl)-1H-pyrazol-1-yl)-5-methylpyrimidin-2-ylamino)-4-methoxy-2-morpholinophenyl)acrylamide], the IC50 on EGFR mutant L858R/T790M was under 20 nM; at EGFR mutant Del19/T790M, under 20 nM; against EGFR mutant T790M it was under 20 nM; on EGFR mutant L858R, 20 to 200 nM; at SYK it was 201 to 1000 nM; in experiment [1] it was under 20 nM.
Turning to `C=CC(=O)Nc1cc(Nc2ncc(C)c(-n3cc(CN(C)C4CN(C)C4)cn3)n2)c(OC)cc1N1CCOCC1` [Compound 23, N-(4-methoxy-5-(5-methyl-4-(4-((methyl(1-methylazetidin-3-yl)amino)methyl)-1H-pyrazol-1-yl)pyrimidin-2-ylamino)-2-morpholinophenyl)acrylamide], the IC50 is 201 to 1000 nM at EGFR mutant L858R/T790M; 201 to 1000 nM on EGFR mutant Del19/T790M; 201 to 1000 nM against EGFR mutant T790M; over 1000 nM at SYK; 201 to 1000 nM in experiment [1].
For `COc1cc(N2CCOCC2)c(N)cc1Nc1nccc(-n2cc(CN(C)C)c(-c3ccccc3)n2)n1` [Compound 153, N1-(4-(4-((dimethylamino)methyl)-3-phenyl-1H-pyrazol-1-yl)pyrimidin-2-yl)-6-methoxy-4-morpholinobenzene-1,3-diamine, reference compound], the IC50 (on EGFR mutant L858R/T790M; at EGFR mutant Del19/T790M; against EGFR mutant T790M; on EGFR mutant L858R; on SYK; in experiment [1]) was over 1000 nM throughout.
For `C=CC(=O)Nc1cc(Nc2nccc(-n3cc(CN(C)C)c(C(C)C)n3)n2)c(OC)cc1N(C)C1COC1` [Compound 114, N-(5-(4-(4-((dimethylamino)methyl)-3-isopropyl-1H-pyrazol-1-yl)pyrimidin-2-ylamino)-4-methoxy-2-(methyl(oxetan-3-yl)amino)phenyl)acrylamide], the IC50 on EGFR mutant L858R/T790M was under 20 nM; at EGFR mutant Del19/T790M it was under 20 nM; against EGFR mutant T790M, under 20 nM; on EGFR mutant L858R, under 20 nM; on SYK it was 201 to 1000 nM; in experiment [1], under 20 nM.
Consider `C=CC(=O)Nc1cc(Nc2nccc(-n3cc(CN4CCC4)c(C)n3)n2)c(OC)cc1N1CCC(F)(F)CC1` [Compound 69, N-(5-(4-(4-(azetidin-1-ylmethyl)-3-methyl-1H-pyrazol-1-yl)pyrimidin-2-ylamino)-2-(4,4-difluoropiperidin-1-yl)-4-methoxyphenyl)acrylamide], for which the IC50 at EGFR mutant L858R/T790M is 20 to 200 nM; at EGFR mutant Del19/T790M, under 20 nM; at EGFR mutant L858R, 20 to 200 nM; against SYK, over 1000 nM; in experiment [1], under 20 nM.
As to `C=CC(=O)Nc1cc(Nc2nccc(-n3cc(CN4CC[C@@H](N(C)C)C4)cn3)n2)c(OC)cc1N1CCOCC1` [Compound 39, (R)—N-(5-(4-(4-((3-(dimethylamino)pyrrolidin-1-yl)methyl)-1H-pyrazol-1-yl)pyrimidin-2-ylamino)-4-methoxy-2-morpholinophenyl)acrylamide], the IC50 on EGFR mutant L858R/T790M is 201 to 1000 nM; at EGFR mutant Del19/T790M it was 20 to 200 nM; on EGFR mutant L858R, 201 to 1000 nM; against SYK it was over 1000 nM; in experiment [1], 201 to 1000 nM.
As to `C=CC(=O)Nc1cc(Nc2ncc(F)c(-n3cc(C)c(CN4CCC4)c3)n2)c(OC)cc1N(C)C` [Compound 142, N-(5-(4-(3-(azetidin-1-ylmethyl)-4-methyl-1H-pyrrol-1-yl)-5-fluoropyrimidin-2-ylamino)-2-(dimethylamino)-4-methoxyphenyl)acrylamide], the IC50 at EGFR mutant L858R/T790M is under 20 nM; at EGFR mutant Del19/T790M it was under 20 nM; at EGFR mutant L858R, under 20 nM; on SYK it was 201 to 1000 nM; in experiment [1], under 20 nM.
Turning to `C=CC(=O)Nc1cc(Nc2nccc(-n3cc(CN4CCCC4)c(-c4ccccc4)n3)n2)c(OC)cc1N1CCOCC1` [Compound 90, N-(4-methoxy-2-morpholino-5-(4-(3-phenyl-4-(pyrrolidin-1-ylmethyl)-1H-pyrazol-1-yl)pyrimidin-2-ylamino)phenyl)acrylamide], the IC50 is under 20 nM at EGFR mutant L858R/T790M; under 20 nM at EGFR mutant Del19/T790M; 20 to 200 nM at EGFR mutant L858R; over 1000 nM against SYK; under 20 nM in experiment [1].
As for `C=CC(=O)Nc1cc(Nc2nccc(-n3cc(CN4CCC4)c(C)n3)n2)c(OC)cc1-c1ccccc1OC` [Compound 68, N-(4-(4-(4-(azetidin-1-ylmethyl)-3-methyl-1H-pyrazol-1-yl)pyrimidin-2-ylamino)-2′,5-dimethoxybiphenyl-2-yl)acrylamide], the IC50 at EGFR mutant L858R/T790M is 20 to 200 nM; on EGFR mutant Del19/T790M, 20 to 200 nM; on EGFR mutant L858R it was 201 to 1000 nM; against SYK it was over 1000 nM; in experiment [1], 20 to 200 nM.
As to `C=CC(=O)Nc1cc(Nc2nccc(-n3cc(CN4CC[C@H](N(C)C)C4)cn3)n2)c(OC)cc1N1CCOCC1` [Compound 35, (S)—N-(5-(4-(4-((3-(dimethylamino)pyrrolidin-1-yl)methyl)-1H-pyrazol-1-yl)pyrimidin-2-ylamino)-4-methoxy-2-morpholinophenyl)acrylamide], the IC50 is 201 to 1000 nM on EGFR mutant L858R/T790M; 20 to 200 nM at EGFR mutant Del19/T790M; 201 to 1000 nM on EGFR mutant L858R; over 1000 nM on SYK; 201 to 1000 nM in experiment [1].
For the compound `C=CC(=O)Nc1cc(Nc2nccc(-n3cc(CN(C)C)c(C(C)C)n3)n2)c(OC)cc1N(C)CCOC` [Compound 112, N-(5-(4-(4-((dimethylamino)methyl)-3-isopropyl-1H-pyrazol-1-yl)pyrimidin-2-ylamino)-4-methoxy-2-((2-methoxyethyl)(methyl)amino)phenyl)acrylamide], the IC50 (at EGFR mutant L858R/T790M; on EGFR mutant Del19/T790M; on EGFR mutant T790M; at EGFR mutant L858R; in experiment [1]) was under 20 nM in each case.
Take `C=CC(=O)Nc1cc(Nc2nccc(-n3cc(CN(C)C)c(C(C)(C)C)n3)n2)c(OC)cc1N(CC)CCOC` [Compound 126, N-(5-(4-(3-tert-butyl-4-((dimethylamino)methyl)-1H-pyrazol-1-yl)pyrimidin-2-ylamino)-2-(ethyl(2-methoxyethyl)amino)-4-methoxyphenyl)acrylamide]: the IC50 is under 20 nM on EGFR mutant L858R/T790M; under 20 nM at EGFR mutant Del19/T790M; 20 to 200 nM against EGFR mutant T790M; under 20 nM on EGFR mutant L858R; under 20 nM in experiment [1].
Consider `C=CC(=O)Nc1cc(Nc2ncc(C)c(-n3cc(CN(C)C)c(C4CC4)n3)n2)c(OC)cc1N(C)C1COC1` [Compound 132, N-(5-(4-(3-cyclopropyl-4-((dimethylamino)methyl)-1H-pyrazol-1-yl)-5-methylpyrimidin-2-ylamino)-4-methoxy-2-(methyl(oxetan-3-yl)amino)phenyl)acrylamide], for which the IC50 (on EGFR mutant L858R/T790M; on EGFR mutant Del19/T790M; at EGFR mutant T790M; on EGFR mutant L858R; in experiment [1]) was under 20 nM in each case.
